As usually defined, the IC50 is the midpoint of a concentration-inhibition curve.

The source made the active and inactive calls. The calls are words filed in the database; no cut-off is given here.

Data on seven compounds can be found in ChEMBL document CHEMBL5143588, “Discovery, Synthesis, and Biological Evaluation of Anaenamides C and D from a New Marine Cyanobacterium, Hormoscilla sp” (J Nat Prod, 2022).

The target of series [1] is T1, Nuclear factor erythroid 2-related factor 2 (Homo sapiens) (UniProt Q16236).
T1 sequence (whole entry): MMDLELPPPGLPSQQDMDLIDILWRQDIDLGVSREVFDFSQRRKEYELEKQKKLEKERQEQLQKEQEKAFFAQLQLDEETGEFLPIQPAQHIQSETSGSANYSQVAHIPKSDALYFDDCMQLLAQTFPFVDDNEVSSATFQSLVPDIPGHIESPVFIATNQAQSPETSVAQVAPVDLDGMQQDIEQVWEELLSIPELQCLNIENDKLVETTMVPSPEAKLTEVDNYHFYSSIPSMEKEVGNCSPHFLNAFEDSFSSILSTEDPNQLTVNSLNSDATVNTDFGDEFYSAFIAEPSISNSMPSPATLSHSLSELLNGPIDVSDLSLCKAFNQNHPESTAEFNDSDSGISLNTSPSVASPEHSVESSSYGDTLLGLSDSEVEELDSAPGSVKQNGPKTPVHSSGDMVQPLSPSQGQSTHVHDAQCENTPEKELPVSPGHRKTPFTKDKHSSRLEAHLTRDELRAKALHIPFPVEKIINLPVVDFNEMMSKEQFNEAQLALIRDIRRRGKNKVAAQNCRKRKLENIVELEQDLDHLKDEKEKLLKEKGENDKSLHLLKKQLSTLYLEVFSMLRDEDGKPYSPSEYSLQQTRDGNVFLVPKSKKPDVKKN
The series is described as follows: Activation of Nrf2 in human HEK293-ARE-Luc cells assessed as fold activation of luciferase activity at 100 uM incubated for 24 hrs by ARE-luciferase reporter gene assay. It is filed as cell-based. The following applies: filed as activator. A general note: In a reporter assay the amount or activity of a reporter protein is the signal.

Series [2] concerns the target T1, Nuclear factor erythroid 2-related factor 2 (Homo sapiens). The series is described as follows: Activation of Nrf2 in human HEK293-ARE-Luc cells assessed as fold activation of luciferase activity at 32 uM incubated for 24 hrs by ARE-luciferase reporter gene assay. The following applies: filed as activator. It is filed as cell-based.
A further series concerns HCT-116. The series is described as follows: Cytotoxicity against human HCT116 cells assessed as inhibition of cell viability incubated for 48 hrs by MTT assay. It is filed as functional, cell-based. Conditions: HCT-116, 48 h. (In general: Formazan colour is commonly taken as a measure of viable cells.)
For series [3], the system named is HEK293. Kind of series: Cytotoxicity against human HEK293-ARE-Luc cells assessed as change in cell viability incubated for 24 hrs by MTT assay. It is filed as toxicity, cell-based. The following applies: hek293, 24 h.
For series [4], the target named is T1, Nuclear factor erythroid 2-related factor 2 (Homo sapiens). The series is described as follows: Activation of Nrf2 in human HEK293-ARE-Luc cells at 10 to 100 uM incubated for 24 hrs by ARE-luciferase reporter gene assay. It is filed as cell-based. Conditions: filed as activator, dose 10-100 µM.
Series [5] relates to HEK293. The series is described as follows: Cytotoxicity against human HEK293-ARE-Luc cells assessed as reduction in cell viability at 10 to 100 uM incubated for 24 hrs by MTT assay. Conditions: hek293, 24 h, dose 10-100 µM. It is filed as toxicity, cell-based.

Regarding `CCCCCc1cccc(OC)c1C(=O)O[C@@H](C(=O)O[C@@H](C)C(=O)NC/C=C(\Cl)C(=O)NC(c1ccccc1)(c1ccccc1)c1ccccc1)[C@@H](C)CC`, the fold change (FC) in series [1] was found to be 11.

Regarding `CCCCCc1cccc(OC)c1C(=O)O[C@@H](C(=O)O[C@@H](C)C(=O)NC/C=C(\Cl)C(N)=O)[C@@H](C)CC`, in series [2], the fold change (FC) is 15. For the same compound, in the series on HCT-116, the IC50 worked out at 42 µM.

Regarding `CCCCCc1cccc(OC)c1C(=O)O[C@@H](C(=O)O[C@@H](C)C(=O)NC/C=C(/Cl)C(=O)NC(c1ccccc1)(c1ccccc1)c1ccccc1)[C@@H](C)CC`, the fold change (FC) in series [1] came out at 6.

In the case of `CC(C)(C)c1cc(O)ccc1O` [E319], the Activity result with HEK293 [3] is given as “Non-Toxic”. The fold change (FC) in series [2] was 29.

With `CCCCCc1cccc(OC)c1C(=O)O[C@@H](C(=O)O[C@@H](C)C(=O)NC/C=C(/Cl)C(N)=O)[C@@H](C)CC`, the fold change (FC) in series [2] stood at 17. In the series on HCT-116, the half-maximal inhibitory concentration (IC50) was found to be 32 µM.

With `CCCCCc1cccc(OC)c1C(=O)O[C@@H](C(=O)O[C@@H](C)C(=O)NC/C=C(\Cl)C(=O)OC)[C@@H](C)CC`, the concentration for half-maximal inhibition (IC50) with HCT-116 stood at 9 µM. For the same compound, the outcome in series [4] was Active. Also, in the series on HEK293 [5], the Activity entry is reported as “Toxic”.

`CCCCCc1cccc(OC)c1C(=O)O[C@@H](C(=O)O[C@@H](C)C(=O)NC/C=C(/Cl)C(=O)OC)[C@@H](C)CC`: the IC50 with HCT-116 came to 5 µM. The result in series [4] was Active. In the series on HEK293 [5], the Activity entry was “Toxic”.
